From patent publication US20110021515A1, “DIHYROFUROPYRMINDINE COMPOUNDS” (TAKEDA PHARMACEUTICAL COMPANY LIMITED, priority 2009, published 2011)

Molecular target: T1, human mTOR (Homo sapiens, UniProt P42345)
T1 construct: purchased Invitrogen
Test: Inhibition of mTOR (LanthaScreen TR-FRET, GFP-4E-BP1 substrate)
Format: biochemical
Details: purified mTor, GFP-4E-BP1 and ATP, 30 min at room temperature; read-out: pIC50 for inhibition of human mTOR in the assay of Example A (converted)
Experimental: Example A Inhibition of mTOR
Purified mTor are purchased from Invitrogen. mTor activity was determined using Invitrogen's LanthaScreen system. The inhibitory properties of compounds relative to mTor may be determined using a black 384-well-plate format in the following buffer 50 mM Hepes, 10 mM NaCl, 10 mM MgCl2, 0.2 mM EDTA, 0.01% Brij35, 2 mM DTT at pH7.3. The test compound is prepared in DMSO using 2 fold serial dilutions for 11 data points which are added to the buffer so that each dilution contains 3% DMSO.
An assay for mTor inhibition is as follows:
Combine in each well 2 μl of 1.2 μM GFP-4E-BP1 (Invitrogen) and 150 μM ATP (in buffer), 2 μl of diluted test compound (3% DMSO in buffer), and 2 μl of 6 nM mTor in buffer. The reaction mixture is then incubated at room temperature for 30 min, and quenched by adding 40 mM ETDA with 4 nM Tb-anti-p4E-BP1 [pThr46] antibody in TR-FRET dilution buffer (Invitrogen). The plate is kept at room temperature for 1 hour and then read using PheraStar (BMG labtech) LanthaScreen mode.
pIC50 values, the negative of the log of the IC50, are calculated by non-linear curve fitting of the compound concentrations and percent of inhibition to the standard pIC50 equation.

SMILES | IC50 [nM]
CNC(=O)Nc1ccc(-c2nc(N3CC4CCC(C3)O4)c3c(n2)C2(CC2)OC3)cc1 [Example 13, 1-(4-(4′-(8-oxa-3-azabicyclo[3.2.1]octan-3-yl)-5′H-spiro[cyclopropane-1,7′-furo[3,4-d]pyrimidine]-2′-yl)phenyl)-3-methylurea] | < 31.6
CNC(=O)Nc1ccc(-c2nc(N3CCOCC3)c3c(n2)C2(CC2)OC3)cc1 [Example 16, 1-methyl-3-(4-(4′-morpholino-5′H-spiro[cyclopropane-1,7′-furo[3,4-d]pyrimidine]-2′-yl)phenyl)urea] | < 31.6
CNC(=O)Nc1ccc(-c2nc(N3CC4CCC(C3)O4)c3c(n2)C(C)(O)OC3)cc1 (stereo not drawn) [Example 12, 1-(4-(4-(8-oxa-3-azabicyclo[3.2.1]octan-3-yl)-7-hydroxy-7-methyl-5,7-dihydrofuro[3,4-d]pyrimidin-2-yl)phenyl)-3-methylurea] | 31.6 to 1000
CNC(=O)Nc1ccc(-c2nc(N3CCOCC3)c3c(n2)C(C)(C)OC3)cc1 [Example 8, 1-(4-(7,7-dimethyl-4-morpholino-5,7-dihydrofuro[3,4-d]pyrimidin-2-yl)phenyl)-3-methylurea] | < 31.6
CCNC(=O)Nc1ccc(-c2nc(N3CC4CCC(C3)O4)c3c(n2)C(C)(C)OC3)cc1 [Example 9, 1-(4-(4-(8-oxa-3-azabicyclo[3.2.1]octan-3-yl)-7,7-dimethyl-5,7-dihydrofuro[3,4-d]pyrimidin-2-yl)phenyl)-3-ethylurea] | < 31.6
CC1(C)OCc2c(N3CCOCC3)nc(-c3ccc(NC(=O)NC4CC4)cc3)nc21 [Example 11, 1-cyclopropyl-3-(4-(7,7-dimethyl-4-morpholino-5,7-dihydrofuro[3,4-d]pyrimidin-2-yl)phenyl)urea] | < 31.6
CCNC(=O)Nc1ccc(-c2nc(N3CCOCC3)c3c(n2)C(C)(C)OC3)cc1 [Example 10] | < 31.6
CNC(=O)Nc1ccc(-c2nc(N3CCOCC3)c3c(n2)C(C)(C)CO3)cc1 [Example 2, 1-(4-(7,7-dimethyl-4-morpholino-6,7-dihydrofuro[3,2-d]pyrimidin-2-yl)phenyl)-3-methylurea] | < 31.6
O=C(Nc1ccc(-c2nc(N3CCOCC3)c3c(n2)C2(CC2)OC3)cc1)NC1CC1 [Example 15, 1-cyclopropyl-3-(4-(4′-morpholino-5′H-spiro[cyclopropane-1,7′-furo[3,4-d]pyrimidine]-2′-yl)phenyl)urea] | < 31.6
CNC(=O)Nc1ccc(-c2nc(N3CC4CCC(C3)O4)c3c(n2)C(C)(C)CO3)cc1 [Example 4, 1-(4-(4-(8-oxa-3-azabicyclo[3.2.1]octan-3-yl)-7,7-dimethyl-6,7-dihydrofuro[3,2-d]pyrimidin-2-yl)phenyl)-3-methylurea] | < 31.6
CCNC(=O)Nc1ccc(-c2nc(N3CCOCC3)c3c(n2)C2(CC2)OC3)cc1 [Example 14, 1-ethyl-3-(4-(4′-morpholino-5′H-spiro[cyclopropane-1,7′-furo[3,4-d]pyrimidine]-2′-yl)phenyl)urea] | < 31.6
CNC(=O)Nc1ccc(-c2nc(N3CC4CCC(C3)O4)c3c(n2)C(C)(C)OC3)cc1 [Example 6, 1-(4-(4-(8-oxa-3-azabicyclo[3.2.1]octan-3-yl)-7,7-dimethyl-5,7-dihydrofuro[3,4-d]pyrimidin-2-yl)phenyl)-3-methylurea] | < 31.6
